Assay results from ChEMBL document CHEMBL6120978, “Anticancer activity of salinomycin quaternary phosphonium salts” (Eur J Med Chem, 2025).
Activity calls are given as the source filed them. No cut-off for these calls is given here.

How the values were obtained:
[1] = Cytotoxicity against human HaCaT cells incubated for 72 hrs by MTT assay; format: toxicity, cell-based
[2] = tested on: Staphylococcus epidermidis; experiment: Antimicrobial activity against Staphylococcus epidermidis ATCC 12228 incubated for 18 hrs by twofold microdilution method; format: functional
[3] = tested on: SW480; experiment: Cytotoxicity against human SW480 cells incubated for 72 hrs by MTT assay; format: functional, cell-based; settings: SW480, 72 h
[4] = Selectivity index, ratio of IC50 for cytotoxicity against chinese hamster V79 cells to IC50 for cytotoxicity against human SW620 cells; format: toxicity, cell-based; settings: V79 cells versus SW620 cells, read-out: Ratio IC50
[5] = Selectivity index, ratio of IC50 for cytotoxicity against chinese hamster V79 cells to IC50 for cytotoxicity against human MDA-MB-231 cells; format: toxicity, cell-based; settings: V79 cells versus MDA-MB-231 cells, read-out: Ratio IC50
[6] = Selectivity index, ratio of IC50 for cytotoxicity against chinese hamster V79 cells to IC50 for cytotoxicity against human A549 cells; format: toxicity, cell-based; settings: V79 cells versus A549 cells, read-out: Ratio IC50
[7] = tested on: Staphylococcus aureus; experiment: Antimicrobial activity against Staphylococcus aureus NCTC 4163 incubated for 18 hrs by twofold microdilution method; format: functional
[8] = Selectivity index, ratio of IC50 for cytotoxicity against human HaCaT cells to IC50 for cytotoxicity against human PC-3 cells; format: toxicity, cell-based; settings: HaCaT cells versus PC-3 cells, read-out: Ratio IC50
[9] = tested on: Lipid bilayer; experiment: Induction of ionic transport in azolectin bilayer membrane assessed as irregular disturbance in membrane permeability in presence of HEPES buffer by electrophysiology technique
[10] = tested on: MDA-MB-231; experiment: Cytotoxicity against human MDA-MB-231 cells incubated for 72 hrs by MTT assay; format: functional, cell-based; settings: MDA-MB-231, 72 h
[11] = tested on: A549; experiment: Cytotoxicity against human A549 cells incubated for 72 hrs by MTT assay; format: functional, cell-based; settings: A549, 72 h
[12] = tested on: Staphylococcus epidermidis; experiment: Antimicrobial activity against Staphylococcus epidermidis ATCC 35984 incubated for 18 hrs by twofold microdilution method; format: functional
[13] = Cytotoxicity against chinese hamster V79 cells incubated for 72 hrs by MTT assay; format: toxicity, cell-based, Cricetulus griseus
[14] = Selectivity index, ratio of IC50 for cytotoxicity against human HaCaT cells to IC50 for cytotoxicity against human A549 cells; format: toxicity, cell-based; settings: HaCaT cells versus A549 cells, read-out: Ratio IC50
[15] = tested on: PC-3; experiment: Cytotoxicity against human PC-3 cells incubated for 72 hrs by MTT assay; format: functional, cell-based; settings: PC-3, 72 h
[16] = tested on: Staphylococcus aureus; experiment: Antimicrobial activity against Staphylococcus aureus ATCC 6538 incubated for 18 hrs by twofold microdilution method; format: functional
[17] = Selectivity index, ratio of IC50 for cytotoxicity against human HaCaT cells to IC50 for cytotoxicity against human SW620 cells; format: toxicity, cell-based; settings: HaCaT cells versus SW620 cells, read-out: Ratio IC50
[18] = Selectivity index, ratio of IC50 for cytotoxicity against human HaCaT cells to IC50 for cytotoxicity against human MDA-MB-231 cells; format: toxicity, cell-based; settings: HaCaT cells versus MDA-MB-231 cells, read-out: Ratio IC50
[19] = tested on: Lipid bilayer; experiment: Induction of ionic transport in azolectin bilayer membrane assessed as specific channel-like structure formation in presence of HEPES buffer by electrophysiology technique
[20] = Selectivity index, ratio of IC50 for cytotoxicity against human HaCaT cells to IC50 for cytotoxicity against human SW480 cells; format: toxicity, cell-based; settings: HaCaT cells versus SW480 cells, read-out: Ratio IC50
[21] = tested on: Staphylococcus aureus; experiment: Antimicrobial activity against Staphylococcus aureus ATCC 25923 incubated for 18 hrs by twofold microdilution method; format: functional
[22] = tested on: Staphylococcus aureus; experiment: Antimicrobial activity against Staphylococcus aureus ATCC 29213 incubated for 18 hrs by twofold microdilution method; format: functional
[23] = tested on: SW-620; experiment: Cytotoxicity against human SW620 cells incubated for 72 hrs by MTT assay; format: functional, cell-based; settings: SW-620, 72 h
[24] = tested on: Escherichia coli; experiment: Antimicrobial activity against Escherichia coli ATCC 25922 incubated for 18 hrs by twofold microdilution method; format: functional
[25] = tested on: A549; experiment: Induction of mitochondrial respiration in human A549 cells assessed as decrease in oxygen consumption rate at 3 uM by Oxygraph-2K system; format: functional, cell-based
[26] = tested on: Lipid bilayer; experiment: Induction of ionic transport in azolectin bilayer membrane assessed as membrane rupture in presence of HEPES buffer by electrophysiology technique
[27] = Selectivity index, ratio of IC50 for cytotoxicity against chinese hamster V79 cells to IC50 for cytotoxicity against human PC-3 cells; format: toxicity, cell-based; settings: V79 cells versus PC-3 cells, read-out: Ratio IC50
[28] = tested on: A549; experiment: Induction of mitochondrial respiration in human A549 cells assessed as fold increase in oxygen consumption rate at 1 uM by Oxygraph-2K system; format: functional
[29] = Selectivity index, ratio of IC50 for cytotoxicity against chinese hamster V79 cells to IC50 for cytotoxicity against human SW480 cells; format: toxicity, cell-based; settings: V79 cells versus SW480 cells, read-out: Ratio IC50
[30] = tested on: Pseudomonas aeruginosa; experiment: Antimicrobial activity against Pseudomonas aeruginosa ATCC 15442 incubated for 18 hrs by twofold microdilution method; format: functional
[31] = tested on: Lipid bilayer; experiment: Induction of current generation in azolectin bilayer membrane in presence of HEPES buffer by electrophysiology technique
[32] = tested on: Mitochondrial membrane; experiment: Induction of mitochondrial membrane potential loss in human A549 cells assessed as red fluorescence at IC50 incubated for 48 hrs MitoTrackerRed CMXRos staining based flow cytometry analysis (reference value: 91.1 %); format: cell membranes
[33] = tested on: Mitochondrial membrane; experiment: Induction of mitochondrial membrane potential loss in human A549 cells assessed as green fluorescence at IC50 incubated for 48 hrs MitoTracker Green FM staining based flow cytometry analysis (reference value: 8.93 %); format: cell membranes
[34] = tested on: Mitochondrial membrane; experiment: Induction of mitochondrial membrane potential loss in human MDA-MB-231 cells assessed as red fluorescence at IC50 incubated for 48 hrs MitoTrackerRed CMXRos staining based flow cytometry analysis (reference value: 91.1 %); format: cell membranes
[35] = tested on: Mitochondrial membrane; experiment: Induction of mitochondrial membrane potential loss in human MDA-MB-231 cells assessed as green fluorescence at IC50 incubated for 48 hrs MitoTracker Green FM staining based flow cytometry analysis (reference value: 8.86 %); format: cell membranes

## CC[C@@H](C(=O)[C@@H](C)[C@@H](O)[C@H](C)[C@@H]1O[C@@H]([C@@H](CC)C(=O)OCCCC[P+](c2ccccc2)(c2ccccc2)c2ccc(N(C)C)cc2)CC[C@@H]1C)[C@H]1O[C@]2(C=C[C@@H](O)[C@]3(CC[C@@](C)([C@H]4CC[C@](O)(CC)[C@H](C)O4)O3)O2)[C@H](C)C[C@@H]1C.[Br-]
[1]
  IC50 at 72 h: 1280 nM
[2]
  MIC: 4 µg/mL
[3]
  IC50: 570 nM
[4]
  selectivity ratio: 3.4
[5]
  selectivity ratio: 0.5
[6]
  selectivity ratio: 0.5
[7]
  MIC: 2 µg/mL
[8]
  selectivity ratio: 0.5
[9]
  Activity: inactive
[10]
  IC50: 780 nM
[11]
  IC50: 750 nM
[12]
  MIC: 4 µg/mL
[13]
  IC50 at 72 h: 370 nM
[14]
  selectivity ratio: 1.7
[15]
  IC50: 2520 nM
[16]
  MIC: 2 µg/mL
[17]
  selectivity ratio: 11.6
[18]
  selectivity ratio: 1.6
[19]
  Activity: inactive
[20]
  selectivity ratio: 2.2
[21]
  MIC: 4 µg/mL
[22]
  MIC: 2 µg/mL
[23]
  IC50: 110 nM
[24]
  MIC: > 256 µg/mL
[25]
  Activity: inactive
[26]
  Activity: inactive
[27]
  selectivity ratio: 0.1
[28]
  fold change (FC): 2.5
[29]
  selectivity ratio: 0.6
[30]
  MIC: > 256 µg/mL
[31]
  Activity: Dose-dependent-effect

## N#CC(C#N)=NNc1cccc(Cl)c1
[32]
  Activity: 20.2%
[33]
  Activity: 79.6%
[34]
  Activity: 12.3%
[35]
  Activity: 87.8%
